# Assay results published in PubChem BioAssay (NCI).
#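 Five concentrations, 48 hours, 96-well plates. Abbreviation: GI50, concentration required for 50% inhibition of growth. TGI marks complete inhibition of growth.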
# Key:
# Assay in all cases: DTP human tumour cell line panel, 48 h
# [1] = tested on: LOX IMVI melanoma
# [2] = tested on: HCT-15 colon
# [3] = tested on: SNB-19 CNS
# [4] = tested on: HCC-2998 colon
# [5] = tested on: PC-3 prostate
# [6] = tested on: HOP-62 NSCLC
# [7] = tested on: HL-60(TB) leukemia
# [8] = tested on: NCI-H226 lung
# [9] = tested on: EKVX NSCLC
# [10] = tested on: OVCAR-8 ovarian
# [11] = tested on: SF-295 CNS
# [12] = tested on: CCRF-CEM leukemia
# [13] = tested on: NCI-H460 lung
# [14] = tested on: HS 578T breast
# [15] = tested on: OVCAR-5 ovarian
# [16] = tested on: NCI-H23 lung
# [17] = tested on: UACC-62 melanoma
# [18] = tested on: OVCAR-3 ovarian
# [19] = tested on: K-562 leukemia
# [20] = tested on: A498 renal
# [21] = tested on: MOLT-4 leukemia
# [22] = tested on: SN12C renal
# [23] = tested on: HOP-92 NSCLC
# [24] = tested on: NCI/ADR-RES ovarian
# [25] = tested on: A549 NSCLC
# [26] = tested on: DU-145 prostate
# [27] = tested on: SK-MEL-2 melanoma
# [28] = tested on: ACHN renal
# [29] = tested on: SR leukemia
structure (smiles),measurement,setting,value
COc1ccc(C2=NN(C(=O)c3cc(OC)c(OC)c(OC)c3)C(c3ccc(C#N)cc3)C2)cc1OC (configuration not stated),GI50,[1],2.24 µM
same,TGI,[1],16.3 µM
same,GI50,[2],1.48 µM
same,TGI,[2],> 64.8 µM
same,GI50,[3],3.02 µM
same,TGI,[3],> 68.2 µM
same,GI50,[4],2.16 µM
same,TGI,[4],6.63 µM
same,GI50,[5],1.94 µM
same,TGI,[5],> 52.3 µM
same,GI50,[6],1.53 µM
same,TGI,[6],36.9 µM
same,GI50,[7],1.85 µM
same,TGI,[7],6.01 µM
same,GI50,[8],2.84 µM
same,TGI,[8],> 55.3 µM
same,GI50,[9],4.59 µM
same,TGI,[9],> 100 µM
same,GI50,[10],3.26 µM
same,TGI,[10],> 42.7 µM
same,GI50,[11],0.351 µM
same,TGI,[11],2.37 µM
same,GI50,[12],3.03 µM
same,TGI,[12],> 100 µM
same,GI50,[13],2.01 µM
same,TGI,[13],> 100 µM
same,GI50,[14],1.53 µM
same,TGI,[14],> 26 µM
same,GI50,[15],5.24 µM
same,TGI,[15],> 100 µM
same,GI50,[16],3.07 µM
same,TGI,[16],> 74 µM
same,GI50,[17],0.737 µM
same,TGI,[17],> 53.1 µM
same,GI50,[18],0.478 µM
same,TGI,[18],2.35 µM
same,GI50,[19],0.889 µM
same,TGI,[19],> 100 µM
same,GI50,[20],0.374 µM
same,TGI,[20],4.34 µM
same,GI50,[21],4.27 µM
same,TGI,[21],> 100 µM
same,GI50,[22],4.47 µM
same,TGI,[22],> 100 µM
same,GI50,[23],0.113 µM
same,TGI,[23],0.792 µM
same,GI50,[24],0.603 µM
same,TGI,[24],11.1 µM
same,GI50,[25],2.32 µM
same,TGI,[25],> 100 µM
same,GI50,[26],2.98 µM
same,TGI,[26],> 39 µM
same,GI50,[27],1.58 µM
same,TGI,[27],> 20.3 µM
same,GI50,[28],1.45 µM
same,TGI,[28],> 66.5 µM
same,GI50,[29],1.13 µM
